According to PMC2323111, “Intervening with Urinary Tract Infections Using Anti-Adhesives Based on the Crystal Structure of the FimH–Oligomannose-3 Complex” (PLoS ONE, 2008):
Like-named read-outs stand apart in the source and are kept apart here.

Legend:
[1] = molecular target: T1, FimH (Escherichia coli, UniProt P08191); assay: inhibition of FimH-dependent bacterial adhesion to […] bladder cells, fimH-negative control; assay type: cell-based; design: J96 FimH expressed from plasmid pMMB66 on type 1 pili of AAEC185(pUT2002) E. coli
Target sequence in this assay (P08191 22-300): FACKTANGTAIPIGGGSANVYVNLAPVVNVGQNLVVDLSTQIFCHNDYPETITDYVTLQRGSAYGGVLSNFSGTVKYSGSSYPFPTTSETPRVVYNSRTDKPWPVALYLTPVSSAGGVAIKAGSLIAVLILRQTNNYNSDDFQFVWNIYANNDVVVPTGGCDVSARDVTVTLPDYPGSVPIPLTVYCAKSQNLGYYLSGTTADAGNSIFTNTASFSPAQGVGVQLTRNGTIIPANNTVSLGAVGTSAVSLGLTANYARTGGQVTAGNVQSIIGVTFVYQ

[2] = molecular target: T1, FimH; assay: co-crystal structure, […] Å; assay type: binding
Target sequence in this assay (P08191 22-179): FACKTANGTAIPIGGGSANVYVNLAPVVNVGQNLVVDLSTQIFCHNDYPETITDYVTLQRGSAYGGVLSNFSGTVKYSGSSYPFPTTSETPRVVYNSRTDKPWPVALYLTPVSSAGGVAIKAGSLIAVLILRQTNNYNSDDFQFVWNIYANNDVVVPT

[3] = molecular target: T1, FimH; assay: SPR, competition in solution with immobilized Fab 1C10; assay type: binding
Target sequence in this assay (P08191 22-179): as above

## CCCCCCCO[C@H]1O[C@H](CO)[C@@H](O)[C@H](O)[C@@H]1O [HM, heptyl α-D-mannose]
[1]
  inhibition of FimH-dependent bacterial adhesion to 5637 bladder cells, fimH-nega: HM is more efficient at reducing FimH-mediated bacterial adherence, in accordance with its higher affinity for FimH

## CC(=O)N[C@H]1[C@H](O[C@H]2[C@H](O)[C@@H](NC(C)=O)C(O)O[C@@H]2CO)O[C@H](CO)[C@@H](O[C@@H]2O[C@H](CO[C@H]3O[C@H](CO)[C@@H](O)[C@H](O)[C@@H]3O)[C@@H](O)[C@H](O[C@H]3O[C@H](CO)[C@@H](O)[C@H](O)[C@@H]3O)[C@@H]2O)[C@@H]1O (stereo partly shown) [oligomannose-3]
[2]
  co-crystal structure, 2.1 Å: Oligomannose-3 has been crystallized in complex with the FimH RBD.

## OC[C@H]1O[C@H](O[C@H]2[C@H](O)[C@@H](CO)OC(O)[C@H]2O)[C@@H](O)[C@@H](O)[C@@H]1O (mixture of isomers) [Manα1,3Man]
[3]
  Kd: 0.281 µM

## CO[C@@H]1O[C@H](CO)[C@@H](O)[C@H](O[C@H]2O[C@H](CO)[C@@H](O)[C@H](O)[C@@H]2O)[C@@H]1O [Manα1,3ManβOMe]
[3]; read-out: Kd
  Kd: 0.112 µM
